Paper PMC3028519 (Toxicology and applied pharmacology, 2010)
Like-named read-outs stand apart in the source and are kept apart here.

What was measured:
[1] = molecular target: human MRP2 (Homo sapiens, UniProt Q92887); format: in vitro ADME; conditions: 37°C, inside-out Sf9 membrane vesicles
[2] = Disposition of Hg; conditions: for renal burden of Hg (total renal mass): HgCl2 0.5 μmol/kg (+1.25 μmol/kg Cys) or CH3HgCl 5 μmol/kg (+12.5 μmol/kg Cys); for administered dose present in blood / renal burden of Hg: rats, strain not stated (discussion); for cortical concentration of Hg, TR− rats compared with corresponding control rats / cortical concentration of Hg, compared with rats of the same strain exposed to HgCl2 or CH3HgCl alone: renal cortex; for distribution of Hg in blood between plasma and cellular components: each group of rats
[3] = both control and TR− rats, 24 h, data not shown
[4] = control (Wistar) rats, i.v., 24 h

human MRP2, sequence (Q92887 whole entry): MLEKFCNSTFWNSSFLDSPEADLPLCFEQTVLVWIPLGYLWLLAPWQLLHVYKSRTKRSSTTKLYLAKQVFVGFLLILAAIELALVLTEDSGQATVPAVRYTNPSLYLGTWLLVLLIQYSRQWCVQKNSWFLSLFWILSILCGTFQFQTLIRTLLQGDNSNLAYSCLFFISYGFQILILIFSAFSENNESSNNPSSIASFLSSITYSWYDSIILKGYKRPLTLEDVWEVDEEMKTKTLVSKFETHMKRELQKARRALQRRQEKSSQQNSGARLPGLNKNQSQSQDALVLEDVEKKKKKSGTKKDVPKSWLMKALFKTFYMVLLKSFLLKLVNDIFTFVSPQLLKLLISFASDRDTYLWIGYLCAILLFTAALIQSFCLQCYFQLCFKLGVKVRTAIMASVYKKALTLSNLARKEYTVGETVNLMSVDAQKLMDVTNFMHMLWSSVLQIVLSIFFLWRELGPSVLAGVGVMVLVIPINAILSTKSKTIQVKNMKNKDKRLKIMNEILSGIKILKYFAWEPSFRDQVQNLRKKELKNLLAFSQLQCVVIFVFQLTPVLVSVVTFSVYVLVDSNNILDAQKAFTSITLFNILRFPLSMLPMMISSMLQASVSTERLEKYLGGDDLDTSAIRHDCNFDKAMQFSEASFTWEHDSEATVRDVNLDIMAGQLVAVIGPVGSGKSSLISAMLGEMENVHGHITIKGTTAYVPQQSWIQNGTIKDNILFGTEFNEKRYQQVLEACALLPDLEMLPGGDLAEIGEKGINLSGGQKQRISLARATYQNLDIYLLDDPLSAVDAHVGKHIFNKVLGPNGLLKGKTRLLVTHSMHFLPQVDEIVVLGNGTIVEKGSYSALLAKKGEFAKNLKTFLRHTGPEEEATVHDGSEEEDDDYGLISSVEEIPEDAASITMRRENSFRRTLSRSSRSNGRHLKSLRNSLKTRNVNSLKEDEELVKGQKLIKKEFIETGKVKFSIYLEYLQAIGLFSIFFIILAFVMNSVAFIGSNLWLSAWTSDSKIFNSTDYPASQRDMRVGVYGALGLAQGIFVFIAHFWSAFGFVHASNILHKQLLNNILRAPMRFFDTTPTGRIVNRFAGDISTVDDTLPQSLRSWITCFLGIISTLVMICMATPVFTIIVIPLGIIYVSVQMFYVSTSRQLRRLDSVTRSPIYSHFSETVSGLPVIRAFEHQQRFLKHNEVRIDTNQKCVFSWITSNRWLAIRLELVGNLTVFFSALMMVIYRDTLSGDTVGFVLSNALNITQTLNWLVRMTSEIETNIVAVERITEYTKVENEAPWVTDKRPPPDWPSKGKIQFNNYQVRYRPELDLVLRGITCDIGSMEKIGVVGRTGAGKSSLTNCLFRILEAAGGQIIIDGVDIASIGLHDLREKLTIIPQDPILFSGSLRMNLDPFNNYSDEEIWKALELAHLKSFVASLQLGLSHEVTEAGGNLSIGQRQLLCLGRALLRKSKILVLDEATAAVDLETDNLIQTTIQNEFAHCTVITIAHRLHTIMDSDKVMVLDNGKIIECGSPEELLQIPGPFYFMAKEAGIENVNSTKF

Row | Molecule | hepatic burden of Hg ([2]; TR− rats, i.v., 24 h) | renal burden of Hg (total renal mass) ([2]; TR− rats, i.v., 24 h) | renal burden of Hg (total renal mass) [2, 4] | urinary excretion of Hg in 24 h ([2]; control rats, i.v.) | amount of Hg in blood, TR− rats compared with corresponding control rats ([2]; i.v., 24 h) | renal burden of Hg, TR− rats compared with corresponding control rats ([2]; i.v., 24 h) | administered dose present in blood ([2]; i.v., 24 h) | renal burden of Hg ([2]; i.v., 24 h) | cortical concentration of Hg, TR− rats compared with corresponding control rats ([2]; i.v., 24 h) | hepatic burden of Hg ([2]; control rats, i.v., 24 h) | distribution of Hg in blood between plasma and cellular components ([2]; 24 h, data not shown) | uptake into MRP2 vesicles compared with control vesicles ([1]; 5 μM mercuric conjugate) | concentration of Hg in the outer stripe of the outer medulla, compared with rats of the same strain exposed to HgCl2 or CH3HgCl alone ([2]; TR− rats, i.v., 24 h) | cortical concentration of Hg, compared with rats of the same strain exposed to HgCl2 or CH3HgCl alone ([2]; TR− rats, i.v., 24 h) | concentration of Hg in the outer stripe of the outer medulla, compared with rats of the same strain exposed to HgCl2 or CH3HgCl alone ([2]; control rats, i.v., 24 h) | cortical concentration of Hg, compared with rats of the same strain exposed to HgCl2 or CH3HgCl alone ([2]; control rats, i.v., 24 h) | further results
1 | CCCCC/C=C\C\C=C/C=C/C=C/[C@@H](SC[C@H](NC(=O)CC[C@H](N)C(=O)O)C(=O)NCC(=O)O)[C@@H](O)CCCC(=O)O [LTC4, Leukotriene C4, reference compound] | – | – | – | – | – | – | – | – | – | – | – | – | – | – | – | – | uptake into MRP2 vesicles compared with control vesicles ([1]; 50 nM LTC4, 2.5 min): significantly greater in MRP2 vesicles than in control vesicles
2 | [CH3][Hg][Cl] [CH3HgCl, methylmercuric chloride] | about 14 % of the dose | approximately 5 % of the administered dose | approximately 5 % of the administered dose | approximately 0.5 % of the administered dose | did not significantly alter | No significant differences | over 40% | about 5 % of the dose | similar | – | – | – | – | – | – | – | hematological burden of Hg associated with cellular components of blood [2, 3]: approximately 99%; hematological burden of Hg present in plasma [2, 3]: ~1%; hepatic burden of Hg, TR− rats compared with corresponding control rats ([2]; i.v., 24 h): two-fold greater; urinary excretion of Hg, control rats compared with corresponding TR− rats ([2]; i.v., 24 h): not significantly different
3 | [Cl][Hg][Cl] [HgCl2, mercuric chloride] | ~6.5 % of the dose | 60 % of the administered dose | approximately 50 % of the administered dose | approximately 4 % of the administered dose | significantly greater | significantly different than that of corresponding control (Wistar) rats | 1-2% | approximately 50 % of the dose | tended to be greater | approximately 3.5 % of the administered dose | distributed evenly between plasma and cellular components | – | – | – | – | – | fecal excretion of Hg after 24 h ([2]; TR− rats, i.v.): approximately 1.5 % of the administered dose; urinary excretion of Hg in 24 h ([2]; TR− rats, i.v.): about 1.5 % of the administered dose; fecal excretion of Hg after 24 h ([2]; control rats, i.v.): approximately 3 % of the administered dose
4 | N[C@@H](CS)C(=O)[O-].N[C@@H](CS)C(=O)[O-].[Hg+2] [Cys-S-Hg-S-Cys, Cysteine-S-conjugate of HgCl2] | – | – | – | – | slightly, but not significantly, greater | more Hg was detected in kidneys of TR^− rats | – | ~70 % of the dose | tended to be greater | ~5 % of the administered dose | distributed evenly between plasma and cellular components | significantly greater in MRP2 vesicles than in control vesicles | not significantly different | significant increase | not significantly different | significant increase | fecal excretion of Hg, compared with rats of the same strain exposed to HgCl2 or CH3HgCl alone ([2]; TR− rats, i.v., 24 h): not significantly different; hematological burden of Hg, compared with rats of the same strain exposed to HgCl2 or CH3HgCl alone ([2]; TR− rats, i.v., 24 h): significantly lower; hepatic burden of Hg, compared with rats of the same strain exposed to HgCl2 or CH3HgCl alone ([2]; TR− rats, i.v., 24 h): not significantly different; renal burden of Hg, compared with rats of the same strain exposed to HgCl2 or CH3HgCl alone ([2]; TR− rats, i.v., 24 h): significantly greater than that of corresponding rats treated with HgCl2; urinary excretion of Hg, compared with rats of the same strain exposed to HgCl2 or CH3HgCl alone ([2]; TR− rats, i.v., 24 h): not significantly different; fecal excretion of Hg, compared with rats of the same strain exposed to HgCl2 or CH3HgCl alone ([2]; control rats, i.v., 24 h): significantly greater than that of corresponding rats exposed to HgCl2 alone; hepatic burden of Hg, compared with rats of the same strain exposed to HgCl2 or CH3HgCl alone ([2]; control rats, i.v., 24 h): increased significantly; renal burden of Hg, compared with rats of the same strain exposed to HgCl2 or CH3HgCl alone ([2]; control rats, i.v., 24 h): significantly greater than that of corresponding rats treated with HgCl2; urinary excretion of Hg, compared with rats of the same strain exposed to HgCl2 or CH3HgCl alone ([2]; control rats, i.v., 24 h): not significantly different
5 | Cysteine-S-conjugate of CH3HgCl [Cys-S-CH3Hg] | – | – | – | – | – | – | – | – | no significant difference | – | – | significantly greater in MRP2 vesicles than in control vesicles | significantly greater | significantly greater | significantly greater | significantly greater | –
